From patent publication US9199970B2, “4-[5-(pyridin-4-yl)-1H-1,2,4-triazol-3-yl]pyridine-2-carbonitrile crystalline polymorph and production method therefor” (FUJIYAKUHIN CO., LTD., priority 2012, dated 2015)
≈ marks a conversion by molar mass, not a printed value.

Assay: Solubility test of various crystal forms (water solubility)
Format: physicochemical
Details: concentration of saturated solution determined through measuring absorbance (FIG. 8)
Method: Solubility Test of Various Crystal Forms
The water solubilities of type I crystals, type II crystals, and the hydrate of compound (1) were determined by calculating each sample concentration of its saturated solution determined through measuring absorbance.

**Q.** For `N#Cc1cc(-c2n[nH]c(-c3ccncc3)n2)ccn1` [type I crystals, 4-[5-(pyridin-4-yl)-1H-1,2,4-triazol-3-yl]pyridine-2-carbonitrile], which water solubility is on record?
**A.** 6.2 µg/mL (≈ 25 µM)

**Q.** Which water solubility does the source give for `N#Cc1cc(-c2n[nH]c(-c3ccncc3)n2)ccn1` [hydrate, 4-[5-(pyridin-4-yl)-1H-1,2,4-triazol-3-yl]pyridine-2-carbonitrile] here?
**A.** 1.9 µg/mL

**Q.** For `N#Cc1cc(-c2n[nH]c(-c3ccncc3)n2)ccn1` [type II crystals, 4-[5-(pyridin-4-yl)-1H-1,2,4-triazol-3-yl]pyridine-2-carbonitrile], which water solubility is on record?
**A.** 4.2 µg/mL (≈ 16.9 µM)
